Measured values from US7750013B2, “N-oxides as prodrugs of piperazine and piperidine derivatives” (Solvay Pharmaceuticals, B.V., priority 2005, dated 2010).

How the values were obtained:
[1] = test system: receptors for which the parent compound showed a high affinity; experiment: In vitro screening of the N-oxide metabolite (receptor affinity overall); format: binding; conditions: affinity very low or below the detection limit
Excerpt: In drug development, metabolites are routinely investigated for activity, toxicity, etc. […] These findings confirmed that in this case one of the most common situations with an N-oxide had occurred: metabolic deactivation.
(§1) The binding data collected in the table below (Example 5: pharmacological test results) were either obtained by CEREP (128, rue Danton, 92500 Rueil-Malmaison, France) or at Solvay Pharmaceuticals B.V. (C. J. van Houtenlaan 36, 1381 CP Weesp, The Netherlands), using well documented standard procedures. The affinities for dopamine-D2 and 5-HT1A receptors for instance, was measured as described by Creese I, Schneider R and Snyder S H, [^3H]-Spiroperidol labels dopamine receptors in rat pituitary and brain, Eur J Pharmacol […], 46: 377-381 and Gozlan H, El Mestikawy S, Pichat L, Glowinsky J and Hamon M, 1983, Identification of presynaptic serotonin autoreceptors using a new ligand ^3H-PAT, Nature 1983, 305: 140-142.

β1-adrenergic = β1-adrenergic (Homo sapiens, UniProt P08588); experiment: In vitro receptor affinity, β1-adrenergic; format: binding
Protocol: as §1

5-HT7 = 5-HT7 (Homo sapiens, UniProt P34969); experiment: In vitro receptor affinity, 5-HT7; format: binding
Protocol: as §1

[2] = test system: 6-OH-dopamine induced turning behavior in rats; experiment: 6-OH-dopamine induced turning behavior in rats; format: in vivo; conditions: Rattus norvegicus, po, read-out: Antagonism of 6-OH dopamine induced turning behavior after oral dosing: ED50
Protocol: 6-OH-dopamine induced turning behavior in rats (Ungerstedt U, 6-OH-DA induced degeneration of central monoamine neurons, Eur. J. Pharmacol. 1968 5: 107-110). Specifically:
Male rats (Wistar, Harlan, Netherlands; 400-500 g at time of experiment) are housed in a temperature (20-21±2° C.) and humidity controlled environment and receive water ad libitum except during experimental sessions. Food is restricted to approximately 15 g per rat per day. A 12-hour light-dark cycle (lights on 07.00-19.00 hour) is used. All experimental procedures are conducted in accordance with Dutch law and conform to local animal care and use committee stipulations.
Unilateral 6-hydroxydopamine (6-OHDA) lesions of the substantia nigra zona compacta are performed using a stereotaxic procedure. […] Good turning rats are defined as those which elicited at least 20 contralateral turns following amphetamine (2.5 mg/kg sc) in the 5 min time epoch beginning 25 min after administration and a mean of at least 20 contralateral turns recorded over a 30 min period after administration of apomorphine (0.25 mg/kg s.c.). […]
Following statistical randomization of the treatment groups rats are pretreated with compounds of the invention (0.1-3 mg/kg p.o.) or vehicle (2 ml/kg) and placed in the rotameters the contralateral rotational behaviour is then measured. […]

α2-adrenergic = experiment: In vitro receptor affinity, α2-adrenergic; format: binding; conditions: rat; radioligand [3H]-RX 821002
Protocol: as §1

μ-opiate = μ-opiate (Rattus norvegicus, UniProt P33535); experiment: In vitro receptor affinity, μ-opiate; format: binding
Protocol: as §1

5-HT2A = 5-HT2A (Homo sapiens, UniProt P28223); experiment: In vitro receptor affinity, 5-HT2A; format: binding
Protocol: as §1

5-HT3 = 5-HT3 (Rattus norvegicus, UniProt P35563); experiment: In vitro receptor affinity, 5-HT3; format: binding
Protocol: as §1

5-HT1A = 5-HT1A (Homo sapiens, UniProt P08908); experiment: In vitro receptor affinity, 5-HT1A; format: binding
Protocol: as §1

[3] = biological target: T1, Human dopamine-D3 receptor (Homo sapiens, UniProt P35462); experiment: In vitro functional receptor activity; format: cell-based
T1 construct: expressed in transfected cells

κ-opiate = κ-opiate (Rattus norvegicus, UniProt P34975); experiment: In vitro receptor affinity, κ-opiate; format: binding
Protocol: as §1

5-HT2C = 5-HT2C (Homo sapiens, UniProt P28335); experiment: In vitro receptor affinity, 5-HT2C; format: binding
Protocol: as §1

T1 sequence (P35462 whole entry): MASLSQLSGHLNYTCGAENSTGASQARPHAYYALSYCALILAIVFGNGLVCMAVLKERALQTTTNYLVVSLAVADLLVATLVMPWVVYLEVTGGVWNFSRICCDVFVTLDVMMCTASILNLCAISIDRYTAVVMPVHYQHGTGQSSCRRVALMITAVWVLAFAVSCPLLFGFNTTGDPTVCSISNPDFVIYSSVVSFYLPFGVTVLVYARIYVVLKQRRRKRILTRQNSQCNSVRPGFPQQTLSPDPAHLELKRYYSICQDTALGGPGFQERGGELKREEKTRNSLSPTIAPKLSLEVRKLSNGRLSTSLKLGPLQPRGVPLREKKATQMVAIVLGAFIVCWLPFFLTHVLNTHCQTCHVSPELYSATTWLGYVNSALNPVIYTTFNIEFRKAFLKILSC
Sequence of μ-opiate (P33535 whole entry): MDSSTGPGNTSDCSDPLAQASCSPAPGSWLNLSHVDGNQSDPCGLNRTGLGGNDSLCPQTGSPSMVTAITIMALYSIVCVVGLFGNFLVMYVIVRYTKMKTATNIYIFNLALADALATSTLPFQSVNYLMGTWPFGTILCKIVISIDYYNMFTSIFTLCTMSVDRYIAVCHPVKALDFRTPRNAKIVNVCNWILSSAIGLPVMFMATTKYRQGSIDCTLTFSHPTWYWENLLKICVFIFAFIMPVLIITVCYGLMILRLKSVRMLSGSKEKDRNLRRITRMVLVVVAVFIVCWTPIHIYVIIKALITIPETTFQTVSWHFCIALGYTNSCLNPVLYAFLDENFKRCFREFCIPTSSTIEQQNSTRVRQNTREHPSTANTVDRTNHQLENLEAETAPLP
Sequence of β1-adrenergic (P08588 whole entry): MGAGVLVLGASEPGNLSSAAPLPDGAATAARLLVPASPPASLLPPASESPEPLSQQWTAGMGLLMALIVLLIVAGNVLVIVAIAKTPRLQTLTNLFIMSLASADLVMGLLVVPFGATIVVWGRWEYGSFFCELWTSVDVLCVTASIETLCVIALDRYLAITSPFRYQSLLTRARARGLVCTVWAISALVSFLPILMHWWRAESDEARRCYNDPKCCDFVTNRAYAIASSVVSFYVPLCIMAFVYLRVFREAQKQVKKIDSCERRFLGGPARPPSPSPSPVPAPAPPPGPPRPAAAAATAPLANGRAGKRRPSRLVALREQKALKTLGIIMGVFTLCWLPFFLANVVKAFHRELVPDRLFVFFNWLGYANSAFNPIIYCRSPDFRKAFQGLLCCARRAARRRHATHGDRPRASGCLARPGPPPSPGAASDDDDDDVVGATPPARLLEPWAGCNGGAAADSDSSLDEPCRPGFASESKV
Sequence of 5-HT2A (P28223 whole entry): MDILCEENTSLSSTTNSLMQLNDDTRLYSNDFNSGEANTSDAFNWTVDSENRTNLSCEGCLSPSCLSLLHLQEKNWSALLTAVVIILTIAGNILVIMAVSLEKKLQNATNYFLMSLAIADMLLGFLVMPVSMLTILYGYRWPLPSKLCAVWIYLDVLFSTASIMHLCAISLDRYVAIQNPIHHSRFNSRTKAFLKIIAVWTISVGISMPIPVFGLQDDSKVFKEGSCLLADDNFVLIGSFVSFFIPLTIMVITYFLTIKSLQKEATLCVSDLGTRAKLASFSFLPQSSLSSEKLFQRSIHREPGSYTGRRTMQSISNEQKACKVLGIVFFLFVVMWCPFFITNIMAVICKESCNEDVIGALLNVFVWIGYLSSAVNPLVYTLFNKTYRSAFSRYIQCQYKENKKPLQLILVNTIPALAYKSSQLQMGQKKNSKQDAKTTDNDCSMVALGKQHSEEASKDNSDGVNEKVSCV
Sequence of 5-HT1A (P08908 whole entry): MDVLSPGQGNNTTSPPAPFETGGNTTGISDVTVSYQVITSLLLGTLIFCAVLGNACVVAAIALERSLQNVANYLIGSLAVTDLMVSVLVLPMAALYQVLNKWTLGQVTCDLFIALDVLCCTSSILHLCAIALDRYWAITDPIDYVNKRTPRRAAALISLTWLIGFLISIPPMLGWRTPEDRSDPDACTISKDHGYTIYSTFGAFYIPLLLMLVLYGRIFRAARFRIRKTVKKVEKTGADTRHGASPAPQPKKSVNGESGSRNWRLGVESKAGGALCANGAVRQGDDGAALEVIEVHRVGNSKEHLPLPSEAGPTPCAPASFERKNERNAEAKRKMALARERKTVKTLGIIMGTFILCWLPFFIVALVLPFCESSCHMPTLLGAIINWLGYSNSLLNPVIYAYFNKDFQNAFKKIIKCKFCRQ
Sequence of κ-opiate (P34975 whole entry): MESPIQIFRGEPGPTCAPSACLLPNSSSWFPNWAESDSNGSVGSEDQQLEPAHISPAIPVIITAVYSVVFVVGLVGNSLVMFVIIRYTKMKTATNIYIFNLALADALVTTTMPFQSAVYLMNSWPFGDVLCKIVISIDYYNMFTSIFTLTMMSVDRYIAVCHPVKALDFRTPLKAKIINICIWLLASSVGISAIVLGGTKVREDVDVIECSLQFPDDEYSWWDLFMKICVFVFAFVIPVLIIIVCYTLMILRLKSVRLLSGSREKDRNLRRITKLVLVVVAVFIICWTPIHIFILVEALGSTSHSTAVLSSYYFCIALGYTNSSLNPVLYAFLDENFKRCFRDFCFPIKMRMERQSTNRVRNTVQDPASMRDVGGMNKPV
Sequence of 5-HT7 (P34969 whole entry): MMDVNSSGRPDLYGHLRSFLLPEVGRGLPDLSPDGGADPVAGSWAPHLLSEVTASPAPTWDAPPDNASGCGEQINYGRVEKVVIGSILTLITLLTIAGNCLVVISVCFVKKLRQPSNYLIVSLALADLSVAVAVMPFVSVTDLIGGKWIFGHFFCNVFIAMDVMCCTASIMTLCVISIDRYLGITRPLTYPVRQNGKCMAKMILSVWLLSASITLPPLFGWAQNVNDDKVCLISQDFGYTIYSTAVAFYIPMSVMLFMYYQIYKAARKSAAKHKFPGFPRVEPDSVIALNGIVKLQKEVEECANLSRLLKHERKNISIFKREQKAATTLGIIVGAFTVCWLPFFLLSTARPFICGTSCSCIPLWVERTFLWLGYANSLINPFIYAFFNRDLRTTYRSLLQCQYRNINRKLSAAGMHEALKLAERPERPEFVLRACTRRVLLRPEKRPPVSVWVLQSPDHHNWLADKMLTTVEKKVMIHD
Sequence of 5-HT2C (P28335 33-458): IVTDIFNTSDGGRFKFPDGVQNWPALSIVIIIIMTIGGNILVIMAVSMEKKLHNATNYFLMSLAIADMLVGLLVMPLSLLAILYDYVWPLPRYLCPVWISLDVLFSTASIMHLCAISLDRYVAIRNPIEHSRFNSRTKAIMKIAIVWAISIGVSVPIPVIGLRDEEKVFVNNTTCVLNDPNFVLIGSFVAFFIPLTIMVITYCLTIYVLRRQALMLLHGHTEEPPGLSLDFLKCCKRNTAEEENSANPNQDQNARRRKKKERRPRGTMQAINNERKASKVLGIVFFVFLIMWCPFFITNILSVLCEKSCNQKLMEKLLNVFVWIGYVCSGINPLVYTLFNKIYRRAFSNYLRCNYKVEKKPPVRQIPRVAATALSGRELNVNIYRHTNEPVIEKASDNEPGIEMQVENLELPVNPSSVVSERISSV
Sequence of 5-HT3 (P35563 24-483): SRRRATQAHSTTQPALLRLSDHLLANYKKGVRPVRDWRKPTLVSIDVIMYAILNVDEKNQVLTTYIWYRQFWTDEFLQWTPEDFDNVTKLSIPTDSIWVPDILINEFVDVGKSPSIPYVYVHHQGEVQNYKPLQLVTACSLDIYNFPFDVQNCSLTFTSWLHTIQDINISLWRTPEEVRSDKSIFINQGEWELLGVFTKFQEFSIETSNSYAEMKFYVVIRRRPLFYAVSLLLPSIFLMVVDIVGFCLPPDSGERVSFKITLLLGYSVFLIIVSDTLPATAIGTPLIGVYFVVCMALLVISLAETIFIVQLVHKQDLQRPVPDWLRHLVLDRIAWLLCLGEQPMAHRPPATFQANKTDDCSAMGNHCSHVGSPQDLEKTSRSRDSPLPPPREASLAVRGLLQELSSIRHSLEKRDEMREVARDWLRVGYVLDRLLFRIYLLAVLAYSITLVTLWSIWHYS

## C[N+]1([O-])CCN(c2cccc3[nH]c(=O)oc23)CC1 [N-oxide of SLV308, N-Oxide of SLV308]
[1]
  In vitro activity (in words): virtually inactive
β1-adrenergic
  Ki: > 1000 nM
5-HT7
  Ki: > 1000 nM
[2]
  ED50: < 1 mg/kg
α2-adrenergic
  Ki: 500 nM
μ-opiate
  Ki: > 1000 nM
5-HT2A
  Ki: > 1000 nM
5-HT3
  Ki: > 1000 nM
5-HT1A
  Ki: 200 nM
[3]
  EC50: 50.1 nM
  Human dopamine-D3 receptor intrinsic activity (α): 0.60
  Kb: > 10000 nM
κ-opiate
  Ki: > 1000 nM
5-HT2C
  Ki: > 1000 nM
